According to patent US12679878B2, “CRF2 receptor agonists and their use in therapy” (SANOFI, priority 2020, dated 2026):
Where two headings read alike, the source gives them in different places. Starred links: 1 amine or outer side, 2 acyl side, 3 side chain; linkers in the order of their positions; H or OH if unused. Residues, ends and D or L forms follow the SMILES beside them. Groups on a side chain read outwards from the residue. *: point of attachment. C18 diacid = O=C(O)CCCCCCCCCCCCCCCCC(=O)*; γGlu = O=C(O)[C@H](CCC(=O)[*:2])N[*:1]; Palmitoyl = CCCCCCCCCCCCCCCC(=O)*; AEEA = NCCOCCOCC(=O)O

Tests used:
human CRF2α receptor = target: T1, human CRF2α receptor (Homo sapiens, UniProt Q13324); test: cAMP agonism at human CRF2 α receptor in TeloHEAC cells (Example 7); format: cell-based; conditions: cAMP HTRF, TeloHEAC cells stably expressing human CRF2 α
T1 construct: expressed in transfected cells; host or cells: TeloHEAC
T1 sequence (Q13324 1-411): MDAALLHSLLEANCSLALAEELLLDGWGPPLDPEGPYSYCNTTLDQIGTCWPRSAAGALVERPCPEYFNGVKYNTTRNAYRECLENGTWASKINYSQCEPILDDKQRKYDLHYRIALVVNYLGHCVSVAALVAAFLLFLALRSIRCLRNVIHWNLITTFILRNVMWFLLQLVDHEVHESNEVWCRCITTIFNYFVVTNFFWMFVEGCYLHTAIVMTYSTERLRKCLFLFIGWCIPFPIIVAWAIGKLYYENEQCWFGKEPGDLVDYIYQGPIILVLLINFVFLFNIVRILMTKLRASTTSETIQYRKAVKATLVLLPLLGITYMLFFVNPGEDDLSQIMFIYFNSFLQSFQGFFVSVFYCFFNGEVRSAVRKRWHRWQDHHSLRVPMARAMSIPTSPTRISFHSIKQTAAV
Summary of the method: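 Steps: thaw and wash cells; suspend in 1×HBSS, 20 mM HEPES, 0 or 0.1% HSA, 2 mM IBMX; add compound, 30 min RT; lyse with HTRF reagents, 1 h; read 665/620 nm. EC50 calculated, E% versus 1000 nM UCN2.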

recombinant human CRF2 = target: T2, recombinant human CRF2 (Homo sapiens, UniProt Q13324); test: CRF2a (h) agonist radioligand binding, [125]sauvagine, HEK cell membranes (Example 11); conditions: for nH (Hill coefficient): competition with [125]sauvagine 0.1 nM
T2 construct: expressed in transfected cells; host or cells: HEK
T2 sequence (Q13324 1-411): T1 sequence (Q13324 1-411)
Description: Receptor binding of the compounds was assessed using a CRF2a (h) (agonist radioligand) assay.
HEK cells expressing recombinant human CRF2 were used as a source of receptor for membrane preparation.
IC50 values (concentration causing a half-maximal inhibition of control specific binding) and Hill coefficients (nH) were determined by non-linear regression analysis of the competition curves generated with mean replicate values using Hill equation curve fitting. The inhibition constants (Ki) were calculated using the Cheng Prusoff equation [Ki=IC50/(1+L/KD) where L is the concentration of radioligand in the assay, and KD is the affinity of the radioligand for the receptor). A Scatchard plot was used to determine the KD.

[1] = Solubility in buffer systems by UPLC-UV (Example 13); format: physicochemical
Summary of the method: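 The supernatant was diluted 1:10 and quantified by UPLC-UV peak area against a reference standard curve, correcting for sequence-based extinction coefficients.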

rat CRF2R α receptor = test: cAMP agonism at rat CRF2R α receptor in A7R5 rat aortic smooth muscle cells (Example 8); format: cell-based; conditions: cAMP HTRF, A7R5 rat aortic smooth muscle cell line, 0% HSA
Summary of the method: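 Thawed cryopreserved A7R5 cells in HBSS/20 mM HEPES (0 or 0.1% HSA) with 2 mM IBMX, 2000 cells/well, were exposed to compound for 30 min at room temperature. cAMP was read by HTRF (665/620 nm ratio) after 1 h with lysis reagents. Activity was normalised to 1000 nM urocortin 2 as 100%, and EC50 was taken as the concentration giving 50% of maximal activation.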

CRF1R receptor = target: T3, CRF1R receptor (Homo sapiens, UniProt P34998); test: cAMP activity at anti-target CRF1R, CRF1R-overexpression CHO cell line (Example 9); format: cell-based
T3 construct: host or cells: CHO-K1 clone 2
T3 sequence (P34998 24-415): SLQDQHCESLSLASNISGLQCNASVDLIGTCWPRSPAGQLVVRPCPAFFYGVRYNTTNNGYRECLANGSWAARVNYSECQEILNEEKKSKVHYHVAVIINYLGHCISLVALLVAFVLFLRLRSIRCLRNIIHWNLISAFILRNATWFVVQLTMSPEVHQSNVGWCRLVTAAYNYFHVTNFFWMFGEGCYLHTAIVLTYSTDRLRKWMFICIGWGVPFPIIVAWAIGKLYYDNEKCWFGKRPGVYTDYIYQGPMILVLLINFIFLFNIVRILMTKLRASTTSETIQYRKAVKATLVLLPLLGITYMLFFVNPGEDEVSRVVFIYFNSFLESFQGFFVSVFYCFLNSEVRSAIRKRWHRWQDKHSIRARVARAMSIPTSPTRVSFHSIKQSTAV
Summary of the method: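 cAMP accumulation was read by HTRF after 30 min at room temperature of compound treatment. Cells were cryopreserved CHO cells overexpressing CRF1R, plated at 2000/well in IBMX (2 mM)-containing HBSS/HEPES buffer with 0 or 0.1% HSA. Activity was normalized to 1000 nM UCN2 as 100%.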

[2] = Chemical stability, purity loss by UPLC-UV after 28 days at 40° C. vs 5° C., pH 4.5 acetate buffer (Example 12); format: physicochemical; conditions: 28 days 40° C. vs 5° C.; pH 4.5, 20 mM acetate buffer; 300 μM
Summary of the method: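 300 μM compound (purity-corrected) in 20 mM acetate buffer, pH 4.5, stored 28 days at 5 and 40° C. Purity by UPLC-UV as compound peak area over total peak area. Value is the purity difference between 5° C. and 40° C. samples, relative to the 5° C. purity, in percent.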

[3] = 0% HSA, read-out: EC50 [nM], 0% HSA
[4] = pH 7.4, Solubility in Buffer C [mg/ml]

Structure (SMILES) | EC50 (human CRF2α receptor; [3]) [nM] | nH (Hill coefficient) (recombinant human CRF2) | solubility at 1 h [1, 4] [µg/mL] | EC50 (human CRF2α receptor; 0.1% HSA, read-out: EC50 [nM], 0.1% HSA) [nM] | Ki (recombinant human CRF2) [nM] | solubility at 1 h ([1]; Buffer B: 100 mM acetate buffer, pH 4.5, 2.7 mg/ml m-cresol, target 10 mg/ml, read-out: Solubility in Buffer B) [µg/mL] | solubility at 1 h ([1]; Buffer C: 100 mM phosphate buffer, pH 7.4, target 10 mg/ml, read-out: Solubility in Buffer C) [µg/mL] | EC50 (rat CRF2R α receptor) [nM] | Emax (CRF1R receptor; CHO) [%] | Relative purity loss [%] [2] [%] | solubility at 1 h ([1]; pH 4.5, Solubility in Buffer B [mg/ml]) [µg/mL] | EC50 (CRF1R receptor; 0% HSA, CRF1R-overexpression CHO cell line) [nM] | Emax (CRF1R receptor; CRF1R-overexpression CHO cell line, read-out: Emax (%)) [%]
CCCCCCCCCCCCCCCC(=O)N[C@@H](CCC(=O)NCCCC[C@H](NC(=O)[C@H](CC(C)C)NC(=O)[C@H](CCCCN)NC(=O)[C@@H](NC(=O)[C@@H]1CCCN1C(=O)[C@@H](NC(=O)[C@H](CC(=O)O)NC(=O)[C@H](CC(C)C)NC(=O)[C@H](CO)NC(=O)[C@H](CC(C)C)NC(=O)[C@@H](NC(=O)[C@@H](N)[C@@H](C)CC)C(C)C)C(C)C)[C@@H](C)CC)C(=O)N[C@@H](CCCCN)C(=O)N[C@H](C(=O)N[C@@H](CC(C)C)C(=O)N[C@@H](CC(C)C)C(=O)N[C@@H](CCC(=O)O)C(=O)N[C@@H](CCC(N)=O)C(=O)N[C@@H](CCC(=O)O)C(=O)N[C@@H](CCCCN)C(=O)N[C@@H](CCC(N)=O)C(=O)N[C@@H](CCCCN)C(=O)N[C@@H](CCCCN)C(=O)N[C@@H](CCC(N)=O)C(=O)N[C@@H](CCCNC(=N)N)C(=O)N[C@@H](CCC(=O)O)C(=O)N[C@@H](CCC(N)=O)C(=O)N[C@@H](C)C(=O)N[C@@H](CCC(=O)O)C(=O)N[C@H](C(=O)N[C@@H](CC(N)=O)C(=O)N[C@@H](CCCCN)C(=O)N[C@@H](CCC(N)=O)C(=O)N[C@H](C(=O)N[C@@H](CC(C)C)C(=O)N[C@@H](C)C(=O)N[C@@H](CCC(N)=O)C(=O)N[C@H](C(N)=O)C(C)C)[C@@H](C)CC)[C@@H](C)O)[C@@H](C)CC)C(=O)O [compound 17] (H-IVLSLDVPIKLK([γGlu-Palmitoyl])KILLEQEKQKKQREQAETNKQILAQV-NH2; N-terminus assumed) | 0.02 | 1.5 | > 10700 |  |  |  |  |  |  |  |  |  | 
CC[C@H](C)[C@H](NC(=O)[C@H](CCC(N)=O)NC(=O)[C@H](CCC(=O)O)NC(=O)[C@H](CC(C)C)NC(=O)[C@H](CC(C)C)NC(=O)[C@H](CCC(N)=O)NC(=O)[C@H](CCCCN)NC(=O)[C@H](CC(N)=O)NC(=O)[C@H](CCCCN)NC(=O)[C@H](CCC(=O)O)NC(=O)[C@H](C)NC(=O)[C@H](CCC(N)=O)NC(=O)[C@H](CCC(N)=O)NC(=O)[C@H](CCCNC(=N)N)NC(=O)[C@H](CCC(=O)O)NC(=O)[C@H](CCCCN)NC(=O)[C@H](CCCCN)NC(=O)[C@H](CCC(N)=O)NC(=O)[C@H](CCCCN)NC(=O)[C@H](CCC(N)=O)NC(=O)[C@H](CCC(N)=O)NC(=O)[C@H](CCCCN)NC(=O)[C@H](CC(C)C)NC(=O)[C@H](CC(C)C)NC(=O)[C@@H](NC(=O)[C@H](CCC(N)=O)NC(=O)[C@H](CCCCNC(=O)COCCOCCNC(=O)COCCOCCNC(=O)CC[C@H](NC(=O)CCCCCCCCCCCCCCCCC(=O)O)C(=O)O)NC(=O)[C@@H](NC(=O)[C@H](CCCCN)NC(=O)[C@@H](NC(=O)[C@@H]1CCCN1C(=O)[C@@H](NC(=O)[C@H](CC(=O)O)NC(=O)[C@H](CC(C)C)NC(=O)[C@H](CO)NC(=O)[C@H](CC(C)C)NC(=O)[C@@H](NC(=O)[C@@H](N)Cc1ccccc1)[C@@H](C)O)C(C)C)[C@@H](C)O)[C@@H](C)CC)[C@@H](C)CC)C(N)=O [compound 51] (H-FTLSLDVPTKIK([AEEA-AEEA-γGlu-C18 diacid])QILLKQQKQKKERQQAEKNKQLLEQI-NH2; N-terminus assumed) | 0.32 | 0.8 |  | 21.4 | 4.3 | > 8800 | > 7700 | 0.87 | 3.38 |  |  |  | 
CC[C@H](C)[C@H](N)C(=O)N[C@H](C(=O)N[C@@H](CC(C)C)C(=O)N[C@@H](CO)C(=O)N[C@@H](CC(C)C)C(=O)N[C@@H](CC(=O)O)C(=O)N[C@H](C(=O)N1CCC[C@H]1C(=O)N[C@H](C(=O)N[C@@H](CCCCN)C(=O)N[C@@H](CC(C)C)C(=O)N[C@@H](CCCCNC(=O)COCCOCCNC(=O)COCCOCCNC(=O)CC[C@H](NC(=O)CCCCCCCCCCCCCCCCC(=O)O)C(=O)O)C(=O)N[C@@H](CCC(N)=O)C(=O)N[C@H](C(=O)N[C@@H](CC(C)C)C(=O)N[C@@H](CC(C)C)C(=O)N[C@@H](CCC(=O)O)C(=O)N[C@@H](CCC(N)=O)C(=O)N[C@@H](CCC(=O)O)C(=O)N[C@@H](CCCNC(=N)N)C(=O)N[C@@H](CCC(N)=O)C(=O)N[C@@H](CCCCN)C(=O)N[C@@H](CCCCN)C(=O)N[C@@H](CCC(N)=O)C(=O)N[C@@H](CCCNC(=N)N)C(=O)N[C@@H](CCC(=O)O)C(=O)N[C@@H](CCC(N)=O)C(=O)N[C@@H](C)C(=O)N[C@@H](CCC(=O)O)C(=O)N[C@H](C(=O)N[C@@H](CC(N)=O)C(=O)N[C@@H](CCCCN)C(=O)N[C@@H](CCC(N)=O)C(=O)N[C@H](C(=O)N[C@@H](CC(C)C)C(=O)N[C@@H](C)C(=O)N[C@@H](CCC(N)=O)C(=O)N[C@H](C(N)=O)C(C)C)[C@@H](C)CC)[C@@H](C)O)[C@@H](C)CC)[C@@H](C)CC)C(C)C)C(C)C [compound 68] (H-IVLSLDVPIKLK([AEEA-AEEA-γGlu-C18 diacid])QILLEQERQKKQREQAETNKQILAQV-NH2; N-terminus assumed) | 0.2 | 0.8 | > 8900 |  |  |  |  | 1.74 |  | 6.00 | > 9800 | > 1000 | 12.3
